Results from ChEMBL document CHEMBL4800731, “Data for DCP probe JNJ-65355394” (2021).

Experiments:
[1] = cML1 Cerep panel
[2] = target: 5-hydroxytryptamine receptor 2A (Homo sapiens) (UniProt P28223); experiment: h5HT2A Cerep panel
[3] = target: Type-1 angiotensin II receptor (Homo sapiens) (UniProt P30556); experiment: hAT1 Cerep panel
[4] = target: D(2) dopamine receptor (Homo sapiens) (UniProt P14416); experiment: hD2S Cerep panel
[5] = target: Voltage-gated inwardly rectifying potassium channel KCNH2 (Homo sapiens, UniProt Q12809); experiment: hERG Cerep panel
[6] = target: Galanin receptor type 2 (Homo sapiens) (UniProt O43603); experiment: hGAL2 Cerep panel
[7] = target: Melanocortin receptor 4 (Homo sapiens) (UniProt P32245); experiment: hMC4 Cerep panel
[8] = target: Neuropeptide Y receptor type 1 (Homo sapiens) (UniProt P25929); experiment: hNPY1 Cerep panel
[9] = target: Neuropeptide Y receptor type 2 (Homo sapiens) (UniProt P49146); experiment: hNPY2 Cerep panel
[10] = target: Vasoactive intestinal polypeptide receptor 1 (Homo sapiens) (UniProt P32241); experiment: hVPAC1 Cerep panel
[11] = organism: Rattus norvegicus; experiment: rCaCH (nitrendipine) Cerep panel
[12] = organism: Rattus norvegicus; experiment: rNaCH Cerep panel
[13] = target: Kappa-type opioid receptor (Rattus norvegicus) (UniProt P34975); experiment: rOP2 Cerep panel
[14] = target: Adenosine receptor A1 (Homo sapiens) (UniProt P30542); experiment: hA1 Cerep panel
[15] = target: Adenosine receptor A3 (Homo sapiens) (UniProt P0DMS8); experiment: hA3 Cerep panel
[16] = target: Alpha-2A adrenergic receptor (Rattus norvegicus) (UniProt P22909); experiment: rAa2 Cerep panel
[17] = target: T1, Alpha-1B adrenergic receptor (Homo sapiens) (UniProt P35368); experiment: hAb1 Cerep panel
T1 sequence (whole entry): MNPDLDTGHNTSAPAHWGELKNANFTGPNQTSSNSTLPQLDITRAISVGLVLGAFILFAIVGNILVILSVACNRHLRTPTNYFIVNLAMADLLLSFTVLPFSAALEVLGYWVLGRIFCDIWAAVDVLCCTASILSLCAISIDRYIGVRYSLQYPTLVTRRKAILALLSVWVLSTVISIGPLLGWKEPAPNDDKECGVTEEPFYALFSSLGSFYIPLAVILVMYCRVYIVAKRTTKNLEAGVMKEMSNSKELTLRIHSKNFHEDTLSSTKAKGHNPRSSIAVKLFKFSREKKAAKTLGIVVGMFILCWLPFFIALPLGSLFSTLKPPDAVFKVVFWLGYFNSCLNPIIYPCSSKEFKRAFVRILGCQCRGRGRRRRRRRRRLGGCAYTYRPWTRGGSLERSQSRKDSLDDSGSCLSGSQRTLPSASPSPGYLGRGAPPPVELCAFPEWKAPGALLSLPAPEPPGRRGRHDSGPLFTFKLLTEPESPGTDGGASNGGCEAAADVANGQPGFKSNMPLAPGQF

[18] = organism: Rattus norvegicus; experiment: rBZD Cerep panel
[19] = target: B2 bradykinin receptor (Homo sapiens) (UniProt P30411); experiment: hBK2 Cerep panel
[20] = target: Cholecystokinin receptor type A (Homo sapiens) (UniProt P32238); experiment: hCCKA Cerep panel
[21] = target: Sodium-dependent dopamine transporter (Homo sapiens, UniProt Q01959); experiment: hDAT Cerep panel
[22] = organism: Rattus norvegicus; experiment: rGABA Cerep panel
[23] = target: Muscarinic acetylcholine receptor M3 (Homo sapiens) (UniProt P20309); experiment: hM3 Cerep panel
[24] = target: Neuromedin-K receptor (Homo sapiens) (UniProt P29371); experiment: hNK3 Cerep panel
[25] = target: Delta-type opioid receptor (Homo sapiens) (UniProt P41143); experiment: hOP1 Cerep panel
[26] = target: 5-hydroxytryptamine receptor 6 (Homo sapiens) (UniProt P50406); experiment: h5HT6 Cerep panel
[27] = target: Vasopressin V1a receptor (Homo sapiens) (UniProt P37288); experiment: hV1a Cerep panel
[28] = organism: Rattus norvegicus; experiment: rKCH Cerep panel
[29] = organism: Rattus norvegicus; experiment: rSKCaCH Cerep panel
[30] = target: T2, 5-hydroxytryptamine receptor 3A (Homo sapiens) (UniProt P46098); experiment: h5HT3 Cerep panel
T2 sequence (whole entry): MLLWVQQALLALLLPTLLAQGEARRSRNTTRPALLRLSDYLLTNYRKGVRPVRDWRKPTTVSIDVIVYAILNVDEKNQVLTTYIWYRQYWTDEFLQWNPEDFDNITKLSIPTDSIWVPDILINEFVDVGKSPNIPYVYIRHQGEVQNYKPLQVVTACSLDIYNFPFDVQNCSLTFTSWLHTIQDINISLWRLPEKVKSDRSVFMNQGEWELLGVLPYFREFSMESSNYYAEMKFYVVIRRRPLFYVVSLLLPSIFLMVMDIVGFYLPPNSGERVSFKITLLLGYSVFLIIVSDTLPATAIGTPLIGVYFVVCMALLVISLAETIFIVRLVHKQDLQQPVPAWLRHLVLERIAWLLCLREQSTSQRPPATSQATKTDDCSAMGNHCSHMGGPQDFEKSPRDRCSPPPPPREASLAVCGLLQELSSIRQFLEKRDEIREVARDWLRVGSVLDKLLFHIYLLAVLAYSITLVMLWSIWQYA

[31] = target: Histamine H1 receptor (Homo sapiens) (UniProt P35367); experiment: hH1 Cerep panel
[32] = target: D(3) dopamine receptor (Homo sapiens) (UniProt P35462); settings: Compound concentration 10.0 uM
[33] = target: D(1B) dopamine receptor (Homo sapiens) (UniProt P21918); settings: Compound concentration 10.0 uM
[34] = target: Alpha-2B adrenergic receptor (Homo sapiens, UniProt P18089); experiment: GPCRScan assay: inhibition of Alpha2B; set-up: radioligand conc. used [nm] 1.5 – 2.0, parental cells HEKT
[35] = target: Sigma intracellular receptor 2 (Homo sapiens, UniProt Q5BJF2); experiment: GPCRScan assay: inhibition of Sigma 2; set-up: radioligand conc. used [nm] 5.0, parental cells HEKT
[36] = target: Sigma non-opioid intracellular receptor 1 (Homo sapiens, UniProt Q99720); experiment: GPCRScan assay: inhibition of Sigma 1; set-up: radioligand conc. used [nm] 4.0 – 5.0, parental cells HEKT
[37] = target: D(1A) dopamine receptor (Homo sapiens) (UniProt P21728); settings: Compound concentration 10.0 uM
[38] = target: Histamine H4 receptor (Homo sapiens) (UniProt Q9H3N8); settings: Compound concentration 10.0 uM
[39] = target: Muscarinic acetylcholine receptor M5 (Homo sapiens) (UniProt P08912); settings: Compound concentration 10.0 uM
[40] = target: Beta-3 adrenergic receptor (Homo sapiens) (UniProt P13945); settings: Compound concentration 10.0 uM

Chain of Alpha-2B adrenergic receptor (P18089 whole entry): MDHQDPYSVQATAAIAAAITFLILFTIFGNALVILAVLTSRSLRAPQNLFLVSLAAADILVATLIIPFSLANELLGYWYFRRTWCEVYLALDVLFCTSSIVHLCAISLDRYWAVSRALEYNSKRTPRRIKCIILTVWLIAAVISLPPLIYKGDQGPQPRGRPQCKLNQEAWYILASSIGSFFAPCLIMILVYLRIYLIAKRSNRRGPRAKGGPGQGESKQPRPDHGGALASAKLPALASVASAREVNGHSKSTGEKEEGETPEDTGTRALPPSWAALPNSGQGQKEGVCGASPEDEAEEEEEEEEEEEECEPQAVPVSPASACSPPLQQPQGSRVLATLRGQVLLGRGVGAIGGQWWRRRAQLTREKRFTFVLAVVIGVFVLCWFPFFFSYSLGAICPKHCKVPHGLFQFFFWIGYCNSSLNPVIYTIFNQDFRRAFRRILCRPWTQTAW
Chain of Sigma intracellular receptor 2 (Q5BJF2 whole entry): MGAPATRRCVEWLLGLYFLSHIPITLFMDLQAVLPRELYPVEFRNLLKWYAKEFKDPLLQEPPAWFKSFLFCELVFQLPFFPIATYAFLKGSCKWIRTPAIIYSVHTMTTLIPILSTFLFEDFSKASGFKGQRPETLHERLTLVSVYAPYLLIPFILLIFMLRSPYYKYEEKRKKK
Chain of Vasopressin V1a receptor (Homo sapiens) (P37288 whole entry, looked up): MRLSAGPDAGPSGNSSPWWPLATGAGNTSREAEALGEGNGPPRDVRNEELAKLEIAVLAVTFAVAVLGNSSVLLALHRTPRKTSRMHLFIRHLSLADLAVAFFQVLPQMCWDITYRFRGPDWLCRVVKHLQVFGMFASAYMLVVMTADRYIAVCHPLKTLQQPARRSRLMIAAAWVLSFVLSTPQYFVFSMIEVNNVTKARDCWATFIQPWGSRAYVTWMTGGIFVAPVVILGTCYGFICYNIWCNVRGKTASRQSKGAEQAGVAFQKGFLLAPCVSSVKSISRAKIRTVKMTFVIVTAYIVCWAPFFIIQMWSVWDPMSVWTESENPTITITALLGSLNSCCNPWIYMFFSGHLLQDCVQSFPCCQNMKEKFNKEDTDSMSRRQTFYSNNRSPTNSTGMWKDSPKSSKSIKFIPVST
Chain of Neuropeptide Y receptor type 1 (Homo sapiens) (P25929 whole entry): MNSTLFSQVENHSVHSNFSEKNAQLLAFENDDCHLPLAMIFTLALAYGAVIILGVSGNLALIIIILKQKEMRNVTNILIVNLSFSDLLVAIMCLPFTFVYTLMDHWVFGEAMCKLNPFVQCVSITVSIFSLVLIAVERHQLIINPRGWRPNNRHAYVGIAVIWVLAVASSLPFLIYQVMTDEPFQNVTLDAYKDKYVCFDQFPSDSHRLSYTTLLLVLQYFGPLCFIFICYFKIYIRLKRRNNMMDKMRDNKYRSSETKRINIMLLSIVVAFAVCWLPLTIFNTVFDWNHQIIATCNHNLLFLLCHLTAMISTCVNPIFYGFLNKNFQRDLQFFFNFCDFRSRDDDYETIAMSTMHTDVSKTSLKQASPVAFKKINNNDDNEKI
Chain of Voltage-gated inwardly rectifying potassium channel KCNH2 (Q12809 whole entry): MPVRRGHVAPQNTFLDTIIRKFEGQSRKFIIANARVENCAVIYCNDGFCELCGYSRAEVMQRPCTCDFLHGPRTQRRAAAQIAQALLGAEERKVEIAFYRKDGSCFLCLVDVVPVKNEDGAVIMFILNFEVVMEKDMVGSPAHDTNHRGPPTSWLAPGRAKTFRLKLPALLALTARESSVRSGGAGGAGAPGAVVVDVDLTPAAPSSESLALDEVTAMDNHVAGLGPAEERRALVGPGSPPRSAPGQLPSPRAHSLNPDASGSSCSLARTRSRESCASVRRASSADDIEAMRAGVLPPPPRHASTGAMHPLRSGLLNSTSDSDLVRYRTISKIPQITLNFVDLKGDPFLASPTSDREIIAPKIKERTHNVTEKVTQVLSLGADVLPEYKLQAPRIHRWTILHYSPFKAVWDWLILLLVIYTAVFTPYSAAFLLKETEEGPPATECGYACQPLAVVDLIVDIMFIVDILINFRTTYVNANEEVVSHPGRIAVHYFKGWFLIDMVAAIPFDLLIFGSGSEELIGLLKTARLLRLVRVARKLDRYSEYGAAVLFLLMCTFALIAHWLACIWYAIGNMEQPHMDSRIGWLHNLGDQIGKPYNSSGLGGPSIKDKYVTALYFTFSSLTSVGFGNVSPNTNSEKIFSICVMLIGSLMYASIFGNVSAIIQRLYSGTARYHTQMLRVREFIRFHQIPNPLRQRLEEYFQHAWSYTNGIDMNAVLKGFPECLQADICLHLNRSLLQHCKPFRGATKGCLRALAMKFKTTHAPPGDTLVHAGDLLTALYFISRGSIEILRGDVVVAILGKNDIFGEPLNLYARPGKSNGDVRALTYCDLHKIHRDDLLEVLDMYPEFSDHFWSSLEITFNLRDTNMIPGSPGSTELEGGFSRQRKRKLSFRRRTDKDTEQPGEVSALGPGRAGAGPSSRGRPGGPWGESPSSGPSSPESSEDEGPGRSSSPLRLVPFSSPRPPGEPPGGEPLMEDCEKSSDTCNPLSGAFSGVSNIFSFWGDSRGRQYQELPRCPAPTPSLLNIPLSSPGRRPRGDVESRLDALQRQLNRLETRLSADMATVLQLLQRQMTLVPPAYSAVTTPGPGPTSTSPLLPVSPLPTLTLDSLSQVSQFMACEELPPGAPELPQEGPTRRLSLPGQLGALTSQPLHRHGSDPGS
Chain of Histamine H1 receptor (Homo sapiens) (P35367 whole entry): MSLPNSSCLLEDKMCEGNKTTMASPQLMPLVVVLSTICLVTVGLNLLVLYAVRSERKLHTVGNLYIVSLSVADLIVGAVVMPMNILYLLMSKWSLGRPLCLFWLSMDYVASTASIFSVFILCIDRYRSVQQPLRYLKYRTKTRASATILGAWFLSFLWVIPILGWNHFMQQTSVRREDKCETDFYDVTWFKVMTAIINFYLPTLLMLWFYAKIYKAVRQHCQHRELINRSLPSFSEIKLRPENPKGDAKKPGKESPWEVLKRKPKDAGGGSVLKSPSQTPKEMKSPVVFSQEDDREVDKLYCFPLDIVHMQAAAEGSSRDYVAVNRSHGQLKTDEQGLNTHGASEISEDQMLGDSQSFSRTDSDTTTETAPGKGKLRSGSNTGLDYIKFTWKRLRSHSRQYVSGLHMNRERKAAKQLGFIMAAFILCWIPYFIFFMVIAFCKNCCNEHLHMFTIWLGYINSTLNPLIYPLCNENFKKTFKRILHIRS
Chain of Melanocortin receptor 4 (Homo sapiens) (P32245 whole entry): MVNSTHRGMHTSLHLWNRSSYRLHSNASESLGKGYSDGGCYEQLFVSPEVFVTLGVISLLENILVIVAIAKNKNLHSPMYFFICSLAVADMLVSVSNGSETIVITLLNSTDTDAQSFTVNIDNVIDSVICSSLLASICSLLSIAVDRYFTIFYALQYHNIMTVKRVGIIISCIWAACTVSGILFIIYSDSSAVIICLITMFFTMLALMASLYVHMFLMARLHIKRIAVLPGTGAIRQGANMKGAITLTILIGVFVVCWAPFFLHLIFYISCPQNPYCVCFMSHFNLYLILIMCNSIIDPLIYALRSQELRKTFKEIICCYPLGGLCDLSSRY
Chain of Muscarinic acetylcholine receptor M5 (Homo sapiens) (P08912 whole entry): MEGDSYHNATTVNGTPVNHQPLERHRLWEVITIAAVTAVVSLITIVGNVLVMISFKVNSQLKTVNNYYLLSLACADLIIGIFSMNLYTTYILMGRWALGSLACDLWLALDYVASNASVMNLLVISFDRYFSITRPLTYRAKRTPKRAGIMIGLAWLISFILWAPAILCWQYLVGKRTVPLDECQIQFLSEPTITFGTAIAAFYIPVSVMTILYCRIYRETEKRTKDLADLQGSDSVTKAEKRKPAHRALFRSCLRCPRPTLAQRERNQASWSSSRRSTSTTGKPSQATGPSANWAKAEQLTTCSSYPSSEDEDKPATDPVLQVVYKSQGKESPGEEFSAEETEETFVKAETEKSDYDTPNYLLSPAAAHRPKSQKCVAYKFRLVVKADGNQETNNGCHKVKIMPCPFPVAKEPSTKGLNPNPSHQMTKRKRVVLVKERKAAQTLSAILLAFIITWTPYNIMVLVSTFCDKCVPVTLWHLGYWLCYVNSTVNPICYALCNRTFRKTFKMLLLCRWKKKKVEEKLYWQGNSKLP
Chain of Neuromedin-K receptor (Homo sapiens) (P29371 whole entry): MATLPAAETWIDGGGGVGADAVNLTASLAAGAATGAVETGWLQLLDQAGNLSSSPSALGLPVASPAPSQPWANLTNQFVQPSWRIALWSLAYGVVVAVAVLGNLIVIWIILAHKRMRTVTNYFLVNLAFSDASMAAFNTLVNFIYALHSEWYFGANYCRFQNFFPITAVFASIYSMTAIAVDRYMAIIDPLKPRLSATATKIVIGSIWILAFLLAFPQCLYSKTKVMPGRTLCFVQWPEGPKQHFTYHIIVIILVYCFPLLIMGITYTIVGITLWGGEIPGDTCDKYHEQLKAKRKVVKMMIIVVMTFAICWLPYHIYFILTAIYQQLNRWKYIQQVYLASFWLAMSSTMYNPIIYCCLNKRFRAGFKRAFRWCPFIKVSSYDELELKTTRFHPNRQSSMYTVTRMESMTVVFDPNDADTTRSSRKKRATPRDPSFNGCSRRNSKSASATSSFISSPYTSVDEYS
Chain of Vasoactive intestinal polypeptide receptor 1 (Homo sapiens) (P32241 whole entry): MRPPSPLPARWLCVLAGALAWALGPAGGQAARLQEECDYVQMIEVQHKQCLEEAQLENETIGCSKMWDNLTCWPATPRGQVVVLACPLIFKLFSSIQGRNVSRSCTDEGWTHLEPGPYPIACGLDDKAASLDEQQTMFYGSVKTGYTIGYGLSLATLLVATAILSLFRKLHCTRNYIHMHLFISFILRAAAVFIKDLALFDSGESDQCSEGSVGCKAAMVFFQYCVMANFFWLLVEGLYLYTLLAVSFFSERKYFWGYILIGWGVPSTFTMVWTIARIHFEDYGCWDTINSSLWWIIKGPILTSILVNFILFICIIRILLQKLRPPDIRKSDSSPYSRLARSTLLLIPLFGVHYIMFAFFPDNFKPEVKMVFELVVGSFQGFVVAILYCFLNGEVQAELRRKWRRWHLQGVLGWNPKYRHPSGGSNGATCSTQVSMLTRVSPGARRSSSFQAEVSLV

CC(=O)Nc1ncc(CN2CCC[C@H](Cc3cc(C)nc(C)c3)C2)s1 [JNJ-65355394]
effect [1]: 11.5% | effect [2]: 4.1% | effect [3]: -3.05% | effect [4]: 10.5% | effect [5]: 10% | effect [6]: 1.4% | effect [7]: 1.3% | effect [8]: -7.35% | effect [9]: -2.7% | effect [10]: -10.1% | effect [11]: 14% | effect [12]: 1.6% | effect [13]: 77.8% | effect [14]: -13.2% | effect [15]: 16% | effect [16]: 69% | effect [17]: 11.2% | effect [18]: -16.6% | effect [19]: 10.8% | effect [20]: -22% | effect [21]: 19.3% | effect [22]: -9.8% | effect [23]: 45.5% | effect [24]: 7% | effect [25]: 20.4% | effect [26]: 14.2% | effect [27]: 7.65% | effect [28]: 1% | effect [29]: 35.4% | effect [30]: 1.85% | effect [31]: 5.7% | inhibition [32]: 10.3% | inhibition [33]: 7.69%

CC(=O)Nc1nc(CN2CCC[C@H](Cc3cc(C)nc(C)c3)C2)cs1 [JNJ-73924149]
Ki ([34]; read-out: Ki): 3690 nM | Ki ([34]; read-out: pKi (converted)): 3670 nM | Ki ([35]; read-out: Ki): 1400 nM | Ki ([35]; read-out: pKi (converted)): 1350 nM | Ki [36]: 63.3 nM | inhibition [37]: 10.7% | inhibition [38]: -0.6% | inhibition [39]: -6.15% | inhibition [40]: -8.59%
